Laboratory results taken from ChEMBL document CHEMBL1201861, “Genomics of Drug Sensitity in Cancer screening data, Wellcome Trust Sanger Institute”.

Experiments:
Format in all cases: functional, cell-based
D-542MG = assay: cells; settings: Homo sapiens
Description: SANGER: Inhibition of human D-542MG cell growth in a cell viability assay.

EB2 = assay: cells; settings: Homo sapiens;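 also: growth inhibition of EB2 cells, read out with a cell viability assay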
Description: SANGER: Inhibition of human EB2 cell growth in a cell viability assay.

HCC1599 = assay: cells; settings: Homo sapiens;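 also: growth inhibition of HCC1599 cells, read out in a cell viability assay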
Description: SANGER: Inhibition of human HCC1599 cell growth in a cell viability assay.

LP-1 = assay: cells; settings: Homo sapiens;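 also: growth inhibition of human LP-1 cells, with the read-out taken from a cell viability assay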
Description: SANGER: Inhibition of human LP-1 cell growth in a cell viability assay.

MONO-MAC-6 = assay: cells; settings: Homo sapiens;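 also: cell viability assay measuring growth inhibition of human MONO-MAC-6 cells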
Description: SANGER: Inhibition of human MONO-MAC-6 cell growth in a cell viability assay.

MRK-nu-1 = assay: cells; settings: Homo sapiens;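 also: cell viability assay measuring growth suppression of human MRK-nu-1 cells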
Description: SANGER: Inhibition of human MRK-nu-1 cell growth in a cell viability assay.

NB12 = assay: cells; settings: Homo sapiens;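 also: growth inhibition of human NB12 cells, read out by a cell viability assay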
Description: SANGER: Inhibition of human NB12 cell growth in a cell viability assay.

NCI-H1694 = assay: cells; settings: Homo sapiens;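 also: cell viability assay measuring inhibition of growth in human NCI-H1694 cells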
Description: SANGER: Inhibition of human NCI-H1694 cell growth in a cell viability assay.

NCI-H1963 = assay: cells; settings: Homo sapiens;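 also: cell growth inhibition of the human line, determined with a cell viability assay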
Description: SANGER: Inhibition of human NCI-H1963 cell growth in a cell viability assay.

NCI-H345 = assay: cells; settings: Homo sapiens;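 also: growth inhibition of NCI-H345 cells measured with a cell viability assay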
Description: SANGER: Inhibition of human NCI-H345 cell growth in a cell viability assay.

NCI-H889 = assay: cells; settings: Homo sapiens;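 also: cell growth inhibition of the cell line, read out with a viability assay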
Description: SANGER: Inhibition of human NCI-H889 cell growth in a cell viability assay.

P31-FUJ = assay: cells; settings: Homo sapiens;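 also: growth inhibition of P31-FUJ cells, read out with a viability assay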
Description: SANGER: Inhibition of human P31-FUJ cell growth in a cell viability assay.

PF-382 = assay: cells; settings: Homo sapiens
Description: SANGER: Inhibition of human PF-382 cell growth in a cell viability assay.

TALL-1 = assay: cells; settings: Homo sapiens;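 also: growth inhibition of cultured human TALL-1 cells, read out by a cell viability assay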
Description: SANGER: Inhibition of human TALL-1 cell growth in a cell viability assay.

BL-41 = assay: cells; settings: Homo sapiens;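 also: growth inhibition of human BL-41 cells, read out with a cell viability assay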
Description: SANGER: Inhibition of human BL-41 cell growth in a cell viability assay.

BL-70 = assay: SANGER: Inhibition of human BL-70 cell growth in a cell viability assay.
YT = assay: cells; settings: Homo sapiens
Description: SANGER: Inhibition of human YT cell growth in a cell viability assay.

Structure (SMILES)	IC50 (D-542MG)	IC50 (EB2)	IC50 (HCC1599)	IC50 (LP-1)	IC50 (MONO-MAC-6)	IC50 (MRK-nu-1)	IC50 (NB12)	IC50 (NCI-H1694)	IC50 (NCI-H1963)	IC50 (NCI-H345)	IC50 (NCI-H889)	IC50 (P31-FUJ)	IC50 (PF-382)	IC50 (TALL-1)	IC50 (BL-41)	IC50 (BL-70)	IC50 (YT)
CCn1c(-c2nonc2N)nc2cnc(Oc3cccc(NC(=O)c4ccc(OCCN5CCOCC5)cc4)c3)cc21 [GSK-269962A]	> 2.5 µM	> 2.5 µM	> 2.5 µM	> 2.5 µM	> 2.5 µM	0.576 µM	> 2.5 µM	> 2.5 µM	1.28 µM	> 2.5 µM	> 2.5 µM	> 2.5 µM	> 2.5 µM	> 2.5 µM	> 2.5 µM	> 2.5 µM	> 2.5 µM
Cc1ccc(NC(=O)c2cccc(C(C)(C)C#N)c2)cc1Nc1ccc2ncn(C)c(=O)c2c1	> 4 µM	> 4 µM	> 4 µM	> 4 µM	> 4 µM	> 4 µM	> 4 µM	> 4 µM	> 4 µM	> 4 µM	> 4 µM	> 4 µM	3.05 µM	> 4 µM	> 4 µM	2.86 µM	> 4 µM
